{
  "source": "patent US9603896B2",
  "about": "“Peptide compounds and methods of production and use thereof” (priority 2012, dated 2017)",
  "key": {"[1]": {"system": "E. coli ATCC® strain 25922™", "type": "cell-based, Escherichia coli", "design": "Effects of Peptide Compounds on Escherichia coli ATCC ® 25922 ™: unit not given here", "details": "Table 6, 5 × 10^3 CFU/ml unless italicized = 1 × 10^5 CFU/ml", "protocol": "(§1) The three peptide compounds BCC01-5RMP (SEQ ID NO:21), BCC02-5RMP (SEQ ID NO:22), and BCC03-5RMP (SEQ ID NO:23) were assayed for in vitro bactericidal activity against Pseudomonas aeruginosa, Escherichia coli, Salmonella typhimurium, and Acinetobacter baumannii. […] The CFU remaining at the end of 60 to 180 minute incubation was determined, and the data plotted as a log reduction in CFU/ml.\n(§2) Tables 4-6 show the results of various peptides and peptide compounds against P. aeruginosa and E. coli strains. Tables 4 and 5 show the results of an investigation of the effects of peptide or peptide compounds BCC03-5RMP (SEQ ID NO:23), BCC03-MP (SEQ ID NO:24) and BCC03-5R (SEQ ID NO:20) against P. aeruginosa ATCC® strain 27853™ and E. coli ATCC® strain 25922™ (American Type Culture Collection, Manassas, Va.). […] Table 6 compares the activity of several other compounds, including the “5R” versions of BCC01, i.e., SEQ ID NO:18 (which comprises SEQ ID NO:1 with five additional arginines), the “5R” version of BCC02 (i.e., SEQ ID NO:19, which comprises SEQ ID NO:2 with five additional arginines), and BCC03-5RMP (SEQ ID NO:23), and BCC03-MP (SEQ ID NO:24, i.e., without the five additional R residues). The data generally indicate the superiority of BCC03-5RMP (SEQ ID NO:23) against E. coli, and the superiority of the 5R or 5RMP versions of the peptide over the “AEEA only” peptide against P. aeruginosa."}, "[2]": {"system": "Pseudomonas aeruginosa ATCC® 27853™", "type": "cell-based", "details": "for Effects of Peptide Compounds on Pseudomonas aeruginosa ATCC ® 27853 ™: Table 6, 5 × 10^3 CFU/ml unless italicized = 1 × 10^5 CFU/ml", "protocol": "as §1, §2\nFor FIGS. 10-13, in vitro bactericidal assays were performed using a starting inoculum of 1×10^6 CFU/ml of the bacterial suspension. The CFU remaining at the end of the 60-180 minute incubation was determined, and the data was plotted as log reduction in CFU/ml.\nIn particular, each of the test peptides (CAP37 peptides 120-146WR, 120-146WH, and 95-122 (SEQ ID NOs: 30, 31, and 26, respectively)) was used at 25, 12.5, 6.25, and 3.12 μM. Gentamicin was used at 4 μg/ml. 1×10^6/ml Acinetobacter baumannii ATCC® BAA-747″ or Pseudomonas aeruginosa ATCC® 27853™ (American Type Culture Collection, Manassas, Va.) were incubated with the peptides, negative buffer control (tryptone saline), and positive control gentamicin at pH 5.5 or 7.2. A 60 minute incubation was used for Acinetobacter baumannii ATCC® BAA747™, while a 180 minute incubation was used for Pseudomonas aeruginosa ATCC® 27853™. 50 μl aliquots were plated out on agar plates and incubated overnight. Colony forming units were counted after overnight incubation and CFU/ml calculated.\nFor FIG. 14, 1×10^6/ml Pseudomonas aeruginosa ATCC® 27853™ were incubated with each of the test peptides (CAP37 peptides 120-146WR, 120-146WH, 120-146QR, 120-146QH, 120-146QR-5RMP, and 120-146QH-5RMP (SEQ ID NOs: 30, 31, 28, 29, 32, and 33, respectively)) at 150, 75, and 37.5 μg/ml, or negative buffer control (tryptone saline), for 180 minutes at pH 5.5. 50 μl aliquots were plated out on agar plates and incubated overnight. Colony forming units were counted after overnight incubation and CFU/ml calculated."}, "swine skin": {"system": "swine skin", "assay": "Swine full thickness excisional dermal wound model", "type": "in vivo", "details": "for Mean Wound Healing (%): topical 3 mg/ml, 0.20 ml per wound daily", "protocol": "In this Example, peptide compounds of the presently disclosed and claimed inventive concept(s) were evaluated as to their activity on the dermal wound healing process in a clinically relevant swine full thickness excisional wound model. Three different peptide formulations (Group B, Peptide 95-122 (SEQ ID NO:26); Group C, Peptide 120-146WH (SEQ ID NO:31); and Group D, Peptide 120-146QH-5RMP (SEQ ID NO:33)) were each evaluated at the same concentration (3 mg/ml). Sterile saline served as the control (Group A).\nFull thickness excisional wounds were induced on the dorsum of swine (N=3) using a 1.0 cm biopsy punch. Treatments were administered (0.20 ml) to each wound (N=6 wounds per group), and the wounds were dressed with standard occlusive dressing ([…]™, 3M Corporation, St. Paul, Minn.). Treatments were reapplied daily and dressings changed. Clinical wound healing observations and wound area (2 mm) measurements were performed on days 0, 3, 5, 7, 10, and 14 post-wounding. Wound area (2 mm) data were expressed as percentage (%) of wound healing. Animals were terminated on day 14 with wounds harvested and processed for histological evaluation. […] All peptide formulation treatment groups healed faster with greater rate of closure and re-epithelialization over time, as compared to the saline control (Group A)."}, "[3]": {"details": "wounds harvested day 14, 3 mg/ml topical"}},
  "note": "Read-outs that look alike come from different tables or passages of the source. Square brackets hold non-standard residues; d marks the D form. Ends that are not written are not given here. Peptide text beside a SMILES is read from it. AEEA = NCCOCCOCC(=O)O",
  "data": [
    {"compound": "RRRRNQGRHFCGGALIHARFVMTAASCFQR (5-arginine peptide derivative of CAP37 peptide) [SEQ ID NO: 18 (Linear)]", "values": [
      {"measurement": "Effects of Peptide Compounds on Escherichia coli ATCC ® 25922 ™", "setting": "[1]; 43.8 μg/ml", "value": 93.9},
      {"measurement": "Effects of Peptide Compounds on Escherichia coli ATCC ® 25922 ™", "setting": "[1]; 87.6 μg/ml", "value": 95.3},
      {"measurement": "Effects of Peptide Compounds on Escherichia coli ATCC ® 25922 ™", "setting": "[1]; 175.2 μg/ml", "value": 97.1},
      {"measurement": "Effects of Peptide Compounds on Escherichia coli ATCC ® 25922 ™", "setting": "[1]; 262.8 μg/ml", "value": 100.0},
      {"measurement": "Effects of Peptide Compounds on Pseudomonas aeruginosa ATCC ® 27853 ™", "setting": "[2]; 0.137 μg/ml", "value": 25.4},
      {"measurement": "Effects of Peptide Compounds on Pseudomonas aeruginosa ATCC ® 27853 ™", "setting": "[2]; 0.5475 μg/ml", "value": 63.2},
      {"measurement": "Effects of Peptide Compounds on Pseudomonas aeruginosa ATCC ® 27853 ™", "setting": "[2]; 2.19 μg/ml", "value": 87.9},
      {"measurement": "Effects of Peptide Compounds on Pseudomonas aeruginosa ATCC ® 27853 ™", "setting": "[2]; 8.76 μg/ml", "value": 99.5},
      {"measurement": "Effects of Peptide Compounds on Pseudomonas aeruginosa ATCC ® 27853 ™", "setting": "[2]; 87.6 μg/ml", "value": 100.0}
    ]},
    {"compound": "RRRRNQGRHFCGGALIHARFVMTAASCFQR (also: cyclized) [SEQ ID NO: 18 (Cyclized)]", "values": [
      {"measurement": "Effects of Peptide Compounds on Escherichia coli ATCC ® 25922 ™", "setting": "[1]; 12.5 μg/ml", "value": 37.9},
      {"measurement": "Effects of Peptide Compounds on Escherichia coli ATCC ® 25922 ™", "setting": "[1]; 25 μg/ml", "value": 38.0},
      {"measurement": "Effects of Peptide Compounds on Escherichia coli ATCC ® 25922 ™", "setting": "[1]; 50 μg/ml", "value": 49.3},
      {"measurement": "Effects of Peptide Compounds on Escherichia coli ATCC ® 25922 ™", "setting": "[1]; 100 μg/ml", "value": 52.6},
      {"measurement": "Effects of Peptide Compounds on Escherichia coli ATCC ® 25922 ™", "setting": "[1]; 200 μg/ml", "value": 59.6},
      {"measurement": "Effects of Peptide Compounds on Escherichia coli ATCC ® 25922 ™", "setting": "[1]; 400 μg/ml", "value": 82.0},
      {"measurement": "Effects of Peptide Compounds on Pseudomonas aeruginosa ATCC ® 27853 ™", "setting": "[2]; 0.78 μg/ml", "value": 99.6},
      {"measurement": "Effects of Peptide Compounds on Pseudomonas aeruginosa ATCC ® 27853 ™", "setting": "[2]; 1.56 μg/ml", "value": 98.4},
      {"measurement": "Effects of Peptide Compounds on Pseudomonas aeruginosa ATCC ® 27853 ™", "setting": "[2]; 3.125 μg/ml", "value": 100.0},
      {"measurement": "Effects of Peptide Compounds on Pseudomonas aeruginosa ATCC ® 27853 ™", "setting": "[2]; 6.25 μg/ml", "value": 100.0},
      {"measurement": "Effects of Peptide Compounds on Pseudomonas aeruginosa ATCC ® 27853 ™", "setting": "[2]; 12.5 μg/ml", "value": 100.0},
      {"measurement": "Effects of Peptide Compounds on Pseudomonas aeruginosa ATCC ® 27853 ™", "setting": "[2]; 25 μg/ml", "value": 100.0},
      {"measurement": "Effects of Peptide Compounds on Pseudomonas aeruginosa ATCC ® 27853 ™", "setting": "[2]; 50 μg/ml", "value": 100.0},
      {"measurement": "Effects of Peptide Compounds on Pseudomonas aeruginosa ATCC ® 27853 ™", "setting": "[2]; 100 μg/ml", "value": 100.0},
      {"measurement": "Effects of Peptide Compounds on Pseudomonas aeruginosa ATCC ® 27853 ™", "setting": "[2]; 200 μg/ml", "value": 100.0},
      {"measurement": "Effects of Peptide Compounds on Pseudomonas aeruginosa ATCC ® 27853 ™", "setting": "[2]; 400 μg/ml", "value": 100.0}
    ]},
    {"compound": "CC(C)C[C@H](NC(=O)[C@H](CCCNC(=N)N)NC(=O)CNC(=O)CNC(=O)[C@H](CO)NC(=O)[C@H](Cc1c[nH]cn1)NC(=O)[C@H](CCC(N)=O)NC(=O)[C@H](CO)NC(=O)CNC(=O)[C@H](Cc1c[nH]c2ccccc12)NC(=O)CNC(=O)[C@H](C)NC(=O)[C@@H](NC(=O)[C@H](CCC(N)=O)NC(=O)[C@H](CS)NC(=O)[C@H](CCCNC(=N)N)NC(=O)[C@@H](NC(=O)CNC(=O)[C@H](CCCNC(=N)N)NC(=O)[C@H](CCCNC(=N)N)NC(=O)[C@H](CCCNC(=N)N)NC(=O)[C@H](CCCNC(=N)N)NC(=O)COCCOCCNC(=O)COCCOCCN)[C@@H](C)O)C(C)C)C(=O)N[C@@H](CO)C(=O)N[C@@H](CCCNC(=N)N)C(=O)N[C@@H](Cc1ccccc1)C(=O)N1CCC[C@H]1C(=O)N[C@@H](CCCNC(=N)N)C(=O)N[C@@H](Cc1ccccc1)C(=O)N[C@H](C(=O)N[C@@H](CC(N)=O)C(=O)N[C@H](C(=O)N[C@@H](CCCNC(=N)N)C(=O)O)C(C)C)C(C)C", "note": "[120-146QH-5RMP] (H-[AEEA][AEEA]RRRRGTRCQVAGWGSQHSGGRLSRFPRFVNVR-OH)", "values": [
      {"measurement": "reduction in CFU (FIG. 14)", "setting": "[2]; pH 5.5, 180 minutes, 75 μg/ml", "value": "~6", "unit": "log"},
      {"measurement": "Mean Wound Healing (%)", "setting": "swine skin; Day 0", "value": 0.0, "unit": "%"},
      {"measurement": "Mean Wound Healing (%)", "setting": "swine skin; Day 3", "value": 22.5, "unit": "%"},
      {"measurement": "Mean Wound Healing (%)", "setting": "swine skin; Day 5", "value": 34.1, "unit": "%"},
      {"measurement": "Mean Wound Healing (%)", "setting": "swine skin; Day 7", "value": 64.1, "unit": "%"},
      {"measurement": "Mean Wound Healing (%)", "setting": "swine skin; Day 10", "value": 93.7, "unit": "%"},
      {"measurement": "Mean Wound Healing (%)", "setting": "swine skin; Day 14", "value": 98.0, "unit": "%"},
      {"measurement": "histology: epidermal resurfacing and maturation vs saline control", "setting": "swine skin; day 14 post-wounding", "value": "greater extent of epidermal resurfacing and maturation of the epidermis"},
      {"measurement": "dermal wound healing vs saline", "setting": "swine skin; topically at 3 mg/ml, over 14 days", "value": "accelerate dermal wound healing"},
      {"measurement": "Histopathology Results, Mean Angiogenesis", "setting": "swine skin; [3]", "value": 1.3},
      {"measurement": "Histopathology Results, Mean Epithelization", "setting": "swine skin; [3]", "value": 4.0},
      {"measurement": "Histopathology Results, Mean Granulation", "setting": "swine skin; [3]", "value": 4.0},
      {"measurement": "Histopathology Results, Mean Inflammation", "setting": "swine skin; [3]", "value": 0.5}
    ]}
  ]
}
